Data published in the supplement of paper PMC10883282.
Where a name gives a salt, the structure may show the parent alone. ± gives the standard deviation of the averaged measurements.

Tested on: SW684
Experiment: relative viability vs DMSO control (72 h) (fraction); higher = more viable cells
In short: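 Relative viability is percent growth read by ATPLite and averaged over up to triplicate wells. Sarcoma cells were seeded in 384-well plates to reach 80–90% confluence and given 2.5 µl of serially diluted compound after 24 h, from source plates of 10 mM to 0.0002 mM. Incubation lasted 72 h at 37 °C, 5% CO2, with 0.1% DMSO vehicle and a 5 µM positive control, and the data were rescaled so 1 equals full and 0 equals none.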

Structure (SMILES): COc1cc2c(cc1O)CCN[C@]21CS[C@@H]2c3c(OC(C)=O)c(C)c4c(c3[C@H](COC1=O)N1[C@@H]2[C@H]2c3c(cc(C)c(OC)c3O)C[C@@H]([C@@H]1O)N2C)OCO4 [Trabectedin]
- relative viability (2 pM): 1.22 ± 0.037
- relative viability (5 pM): 1.2 ± 0.027
- relative viability (15 pM): 1.22 ± 0.047
- relative viability (50 pM): 1.18 ± 0.06
- relative viability (0.00014 µM): 1.2 ± 0.045
- relative viability (0.00041 µM): 1.1605 ± 0.00091
- relative viability (0.0012 µM): 0.64 ± 0.054
- relative viability (0.0037 µM): 0.811 ± 0.043
- relative viability (0.011 µM): 0.84 ± 0.038
- relative viability (200 fM): 1.17 ± 0.051
- relative viability (600 fM): 1.2 ± 0.071

Structure (SMILES): CN1CCN(c2ccc3nc(-c4c(N)c5c(F)cccc5[nH]c4=O)[nH]c3c2)CC1 [Dovitinib]
- relative viability (0.00017 µM): 1.12 ± 0.039
- relative viability (0.00051 µM): 1.17 ± 0.013
- relative viability (0.00152 µM): 1.17 ± 0.033
- relative viability (0.00457 µM): 1.15 ± 0.037
- relative viability (0.01372 µM): 1.18 ± 0.028
- relative viability (0.04115 µM): 1.15 ± 0.038
- relative viability (0.1235 µM): 1.11 ± 0.037
- relative viability (0.3704 µM): 1.138 ± 0.01
- relative viability (1.111 µM): 0.977 ± 0.034
- relative viability (3.333 µM): 0.656 ± 0.019
- relative viability (10 µM): 0.294 ± 0.038

Structure (SMILES): C[C@@H]1COCCN1c1cc(-c2ccnn2C)c2ccnc(-c3ccn[nH]3)c2n1
- relative viability (0.00017 µM): 1.14 ± 0.056
- relative viability (0.00051 µM): 1.19 ± 0.041
- relative viability (0.00152 µM): 1.18 ± 0.085
- relative viability (0.00457 µM): 1.17 ± 0.069
- relative viability (0.01372 µM): 1.14 ± 0.082
- relative viability (0.04115 µM): 1.06 ± 0.056
- relative viability (0.1235 µM): 1.04 ± 0.048
- relative viability (0.3704 µM): 0.919 ± 0.036
- relative viability (1.111 µM): 0.719 ± 0.039
- relative viability (3.333 µM): 0.461 ± 0.023
- relative viability (10 µM): 0.367 ± 0.01

Structure (SMILES): Cn1cc(-c2cc3c(N4CCN(c5ncc([C@@](C)(N)c6ccc(F)cc6)cn5)CC4)ncnn3c2)cn1 [Avapritinib]
- relative viability (0.00017 µM): 1.058 ± 0.0041
- relative viability (0.00051 µM): 1.04 ± 0.013
- relative viability (0.00152 µM): 1.07 ± 0.036
- relative viability (0.00457 µM): 1.05 ± 0.031
- relative viability (0.01372 µM): 1.05 ± 0.035
- relative viability (0.04115 µM): 1.01 ± 0.017
- relative viability (0.1235 µM): 1.09 ± 0.064
- relative viability (0.3704 µM): 1.06 ± 0.034
- relative viability (1.111 µM): 1.02 ± 0.021
- relative viability (3.333 µM): 1.03 ± 0.03
- relative viability (10 µM): 0.95 ± 0.038

Structure (SMILES): C[C@]1(O)C[C@@H](c2nc(-c3ccc4ccc(-c5ccccc5)nc4c3)c3c(N)nccn32)C1 [Linsitinib]
- relative viability (0.00017 µM): 1.13 ± 0.073
- relative viability (0.00051 µM): 1.17 ± 0.016
- relative viability (0.00152 µM): 1.18 ± 0.021
- relative viability (0.00457 µM): 1.159 ± 0.0094
- relative viability (0.01372 µM): 1.16 ± 0.065
- relative viability (0.04115 µM): 1.14 ± 0.021
- relative viability (0.1235 µM): 1.13 ± 0.039
- relative viability (0.3704 µM): 1.11 ± 0.04
- relative viability (1.111 µM): 1.09 ± 0.035
- relative viability (3.333 µM): 1.07 ± 0.019
- relative viability (10 µM): 0.978 ± 0.057

Structure (SMILES): Cc1nc(NC(=O)N2CCC[C@H]2C(N)=O)sc1-c1ccnc(C(C)(C)C(F)(F)F)c1 [Alpelisib]
- relative viability (0.00017 µM): 1.09 ± 0.054
- relative viability (0.00051 µM): 1.12 ± 0.043
- relative viability (0.00152 µM): 1.12 ± 0.059
- relative viability (0.00457 µM): 1.15 ± 0.065
- relative viability (0.01372 µM): 1.09 ± 0.089
- relative viability (0.04115 µM): 1.05 ± 0.026
- relative viability (0.1235 µM): 1.07 ± 0.061
- relative viability (0.3704 µM): 0.968 ± 0.025
- relative viability (1.111 µM): 0.876 ± 0.0097
- relative viability (3.333 µM): 0.643 ± 0.025
- relative viability (10 µM): 0.446 ± 0.036

Structure (SMILES): COc1cccc2c1C(=O)c1c(O)c3c(c(O)c1C2=O)C[C@@](O)(C(=O)CO)C[C@@H]3O[C@H]1C[C@H](N)[C@H](O)[C@H](C)O1 [Doxorubicin Hydrochloride]
- relative viability (0.00017 µM): 1.21 ± 0.03
- relative viability (0.00051 µM): 1.21 ± 0.023
- relative viability (0.00152 µM): 1.2 ± 0.058
- relative viability (0.00457 µM): 1.157 ± 0.0079
- relative viability (0.01372 µM): 1.06 ± 0.044
- relative viability (0.04115 µM): 0.96 ± 0.031
- relative viability (0.1235 µM): 0.821 ± 0.062
- relative viability (0.3704 µM): 0.731 ± 0.14
- relative viability (1.111 µM): 0.813 ± 0.013
- relative viability (3.333 µM): 0.803 ± 0.033
- relative viability (10 µM): 0.693 ± 0.024

Structure (SMILES): CNC(=O)c1ccc(-c2cnc3ncc(Cc4ccc5ncccc5c4)n3n2)cc1F [Capmatinib]
- relative viability (0.00017 µM): 1.19 ± 0.017
- relative viability (0.00051 µM): 1.2 ± 0.043
- relative viability (0.00152 µM): 1.19 ± 0.047
- relative viability (0.00457 µM): 1.15 ± 0.056
- relative viability (0.01372 µM): 1.12 ± 0.046
- relative viability (0.04115 µM): 1.127 ± 0.0092
- relative viability (0.1235 µM): 1.13 ± 0.029
- relative viability (0.3704 µM): 1.14 ± 0.085
- relative viability (1.111 µM): 1.17 ± 0.06
- relative viability (3.333 µM): 1.13 ± 0.052
- relative viability (10 µM): 1.05 ± 0.045

Structure (SMILES): Cc1ccc(NC(=O)c2ccc(CN3CCN(C)CC3)cc2)cc1Nc1nc(-c2cccnc2)cs1 [Masitinib]
- relative viability (0.00017 µM): 1.04 ± 0.017
- relative viability (0.00051 µM): 1.07 ± 0.038
- relative viability (0.00152 µM): 1.11 ± 0.029
- relative viability (0.00457 µM): 1.08 ± 0.027
- relative viability (0.01372 µM): 1.07 ± 0.034
- relative viability (0.04115 µM): 1.1 ± 0.025
- relative viability (0.1235 µM): 1.06 ± 0.043
- relative viability (0.3704 µM): 1 ± 0.025
- relative viability (1.111 µM): 0.851 ± 0.014
- relative viability (3.333 µM): 0.508 ± 0.066
- relative viability (10 µM): 0.0554 ± 0.0057
